Experimental findings from patent US20250313530A1, “SMALL MOLECULE INHIBITORS OF INTERLEUKIN-4 AND USES THEREOF” (Trustees of Boston University, priority 2024, published 2025) are described below.

One data set has as its target T1, IL-4 (Homo sapiens, UniProt P05112).
T1 construct: purchased Acros Biosystems IL4-H4218; host or cells: HEK-293
T1 sequence (P05112 25-153): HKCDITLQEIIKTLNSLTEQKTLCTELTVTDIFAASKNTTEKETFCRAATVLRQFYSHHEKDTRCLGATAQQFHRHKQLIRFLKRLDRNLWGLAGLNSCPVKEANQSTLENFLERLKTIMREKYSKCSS
Description: HEK-Blue IL-4/IL-13 reporter assay, IL-4 inhibition. The class given is cell-based. To be noted: for inhibition at 10 µM: HEK-Blue; for inhibition at 10 µM / % Inhibition: IL-4, HEK Blue IL-4/IL-13 reporter assay, 10 μM. How it is done:
HEK-Blue IL-4/IL-13 Inhibition assay. HEK-Blue IL-4/IL-13 reporter cell lines were purchased from Invivogen and cultured in DMEM with 10% Heat Inactivated Fetal Bovine Serum (FBS), 100 U/ml-100 μg/ml Pen-Strep, 10 μg/ml blasticidin, 100 μg/ml Normocin and 100 μg/ml Zeocin. Cells were tested for secreted embryonic alkaline phosphatase (SEAP) production induced by IL-4 alone prior to small molecule screening.
22.5 μl of small molecule in DMEM 4% DMSO was added to 22.5 μl of 1 ng/ml IL-4 in DMEM in a non-binding 96-well reaction plate for 30 minutes at room temperature. The reaction plate was further incubated for 30-60 min at 37° C. HEK-Blue IL-4/IL-13 reporter cell line was used between passages 11-17. […] Measurements were done in triplicate. The plate was incubated for ˜22-24 hours at 37° C./5% CO2. Quanti-Blue dye was prepared as per the manufacturer's recommendation and 160 μl was dispensed in each well of a 96-well plate (avoid edges to avoid evaporation), 40 μl of cell supernatant was added to the same plate and incubated for 3 hours at 37° C./5% CO2. Optical density was then measured at 650 nm using Molecular Devices SpectraMax M5 Microplate reader. Data was analyzed and plotted using GraphPad Prism 9.2.0.

Data set [1] in a line: Mouse hepatic microsome stability. The class given is in vitro ADME. Conditions: mouse hepatic microsomes.

Each structure is given as a SMILES string. Values joined by “and” are separate entries in the source; they are usually repeats but may differ in a detail not shown here. Equal values may be shown once. Read-outs that look alike come from different tables or passages of the source.

Regarding `N#Cc1c(-c2cccc(O)c2)cc(-c2ccc(F)cc2)[nH]c1=O` [Compound 40, 6-(4-fluorophenyl)-4-(3-hydroxyphenyl)-2-oxo-1,2-dihydropyridine-3-carbonitrile], on IL-4, at 10 µM the inhibition was 64.3 ± 12.3%. For `N#Cc1c(-c2ccccc2)cc(-c2ccc(F)cc2)[nH]c1=N` [Compound 43, 6-(4-fluorophenyl)-2-imino-4-phenyl-1,2-dihydropyridine-3-carbonitrile], the inhibition at 10 µM on IL-4 (read-out: % Inhibition) stood at 6.13 ± 9.13%. As for `N#CC1C(=N)N=C(c2ccc(Br)cc2)C=C1c1ccc(O)c(O)c1` (centres unmarked) [Compound 3, 6-(4-bromophenyl)-4-(3,4-dihydroxyphenyl)-2-imino-2,3-dihydropyridine-3-carbonitrile], the “% Inhibition” value on IL-4 was 63.3 ± 2.54% and 93.3 ± 2.54%. Besides, the EC50 on IL-4 (dose response, IL-4 inhibition, HEK Blue IL-4/IL-13 reporter assay, read-out: EC50) turned out to be 1300 ± 390 nM. Consider `N#Cc1c(-c2ccc(O)c(O)c2)cc(C23CC(C2)C3)nc1N` [1A/54, 6-(bicyclo[1.1.1]pentan-1-yl)-4-(3,4-dihydroxyphenyl)-2-imino-2,3-dihydropyridine-3-carbonitrile], for which the inhibition at 10 µM at IL-4 (read-out: % Inhibition) amounted to 86.1%. For the same compound, the “Mouse hepatic microsome stability (% remaining after 1 hour)” value in data set [1] is listed as 68.3%.

Consider `COc1cc(-c2cc(-c3ccc(F)cc3)[nH]c(=O)c2C#N)ccc1O` [Compound 42, 6(4-fluorophenyl)-4-(4-hydroxy-3-methoxyphenyl)-2-oxo-1,2-dihydropyridine-3-carbonitrile], for which, at IL-4, the inhibition at 10 µM amounted to 67.6 ± 4.88%.

Regarding `N#Cc1c(-c2ccc(O)c(O)c2)cc(-c2ccc(-n3ccnc3)cc2)nc1N` [Compound 16, 6-(4-(1H-imidazol-1-yl)phenyl)-2-amino-4-(3,4-dihydroxyphenyl)nicotinonitrile], the “% Inhibition” value on IL-4 is listed as “No inhibition”.

As to `Cc1ccc(N2CCCCC2)cc1` [Compound 18], at IL-4 (read-out: % Inhibition), the inhibition at 10 µM turned out to be 88.2 ± 13.9%. For `CN(C)c1ccc(-c2cc(-c3ccc(O)c(O)c3)c(C#N)c(N)n2)cc1` [Compound 17, 2-amino-4-(3,4-dihydroxyphenyl)-6-(4-(dimethylamino)phenyl)nicotinonitrile], on IL-4 (read-out: % Inhibition), the inhibition at 10 µM came to 22.9 ± 1.48%. The same measure, in the same setting: with `N#Cc1c(-c2ccc(O)c(C(=O)O)c2)cc(-c2ccc(F)cc2)[nH]c1=N` [Compound 51, 5-(3-cyano-6-(4-fluorophenyl)-2-imino-1,2-dihydropyridin-4-yl)-2-hydroxybenzoic acid] the figure was 54.6 ± 11.6%. As to `N#Cc1c(-c2ccc(O)c(O)c2)cc(-c2ccc(-c3ccccc3)cc2)[nH]c1=N` [Compound 10, 6-([1,1′-biphenyl]-4-yl)-4-(3,4-dihydroxyphenyl)-2-imino-1,2-dihydropyridine-3-carbonitrile], the inhibition at 10 µM on IL-4 (read-out: % Inhibition) is 4.73 ± 4.58%. On to `N#Cc1c(-c2ccc(O)c(O)c2)cc(-c2ccco2)nc1N` [Compound 8, 2-amino-4-(3,4-dihydroxyphenyl)-6-(furan-2-yl)nicotinonitrile], for which, at IL-4, the “% Inhibition” value is listed as “No inhibition”.

Turning to `N#Cc1c(-c2ccccc2)cc(-c2ccc(F)cc2)[nH]c1=O` [Compound 35, 6-(4-fluorophenyl)-2-oxo-4-phenyl-1,2-dihydropyridine-3-carbonitrile], the inhibition at 10 µM on IL-4 (read-out: % Inhibition) worked out at 27.6 ± 25.1%. On the same count and under the same terms, to `N#Cc1c(-c2ccc(O)c(O)c2)cc(C2CCC2)nc1N` [3A/56, 2-amino-6-cyclobutyl-4-(3,4-dihydroxyphenyl) nicotinonitrile] belongs 28.5 ± 12.1%. For the compound `N#Cc1c(-c2ccc(O)c(O)c2)cc(C2CCCCC2)nc1N` [Compound 12, 2-amino-6-cyclohexyl-4-(3,4-dihydroxyphenyl)nicotinonitrile], at IL-4, the “% Inhibition” value was determined as 48.4 ± 5.80% and 10 µM produced 49.4% inhibition.
